Measurements: US20200239530A1, “COMPOUNDS AND METHODS OF MODULATING PROTEIN DEGRADATION” (Vividion Therapeutics, Inc., priority 2017, published 2020)
Read-outs that look alike come from different tables or passages of the source. Each block holds one molecule with its values, some of them ahead of it.

How the values were obtained:
Experiment in all cases: Competitive cysteine profiling, probe competition (Table 2B)
Type in all cases: binding
Q9P203 = target: T1, Q9P203 (Homo sapiens, UniProt Q9P203)
T1 construct: 200 μL of lysate containing 5 mg/ml proteome was treated with 2 μL of 100× compound stock; endogenous in cells
T1 sequence (Q9P203 1-1132): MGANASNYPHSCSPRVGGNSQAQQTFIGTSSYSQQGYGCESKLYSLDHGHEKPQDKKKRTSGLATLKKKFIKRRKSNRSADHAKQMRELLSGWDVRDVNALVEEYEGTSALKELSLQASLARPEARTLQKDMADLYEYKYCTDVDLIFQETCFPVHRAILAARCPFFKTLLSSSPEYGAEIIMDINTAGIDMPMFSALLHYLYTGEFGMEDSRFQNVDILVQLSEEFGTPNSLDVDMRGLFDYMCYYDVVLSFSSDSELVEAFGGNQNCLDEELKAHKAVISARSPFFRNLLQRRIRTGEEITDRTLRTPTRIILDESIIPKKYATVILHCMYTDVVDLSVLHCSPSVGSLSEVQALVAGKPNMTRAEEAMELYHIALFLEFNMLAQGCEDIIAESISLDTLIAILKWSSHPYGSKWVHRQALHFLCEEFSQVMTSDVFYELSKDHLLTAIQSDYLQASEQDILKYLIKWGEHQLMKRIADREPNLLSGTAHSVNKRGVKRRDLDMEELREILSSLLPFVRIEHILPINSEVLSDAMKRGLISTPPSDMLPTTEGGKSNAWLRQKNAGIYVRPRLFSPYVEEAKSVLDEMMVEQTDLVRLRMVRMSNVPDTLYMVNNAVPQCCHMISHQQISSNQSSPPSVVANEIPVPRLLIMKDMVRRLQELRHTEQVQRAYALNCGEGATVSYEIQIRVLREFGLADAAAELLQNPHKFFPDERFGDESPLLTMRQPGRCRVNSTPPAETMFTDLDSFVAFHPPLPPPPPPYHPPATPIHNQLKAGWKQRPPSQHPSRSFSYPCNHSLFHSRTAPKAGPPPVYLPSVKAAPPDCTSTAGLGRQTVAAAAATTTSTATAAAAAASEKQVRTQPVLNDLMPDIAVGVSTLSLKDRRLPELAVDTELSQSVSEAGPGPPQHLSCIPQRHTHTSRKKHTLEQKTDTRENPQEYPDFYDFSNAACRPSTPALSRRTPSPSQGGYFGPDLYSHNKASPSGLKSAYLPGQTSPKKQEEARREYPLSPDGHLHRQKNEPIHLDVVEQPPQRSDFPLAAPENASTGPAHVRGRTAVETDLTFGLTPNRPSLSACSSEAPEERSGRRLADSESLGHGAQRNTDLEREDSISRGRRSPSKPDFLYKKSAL
Text: (§1) The following 96-well sample prep protocol was used for sample preparation.

Q8WXK3 = target: T2, Q8WXK3 (Homo sapiens, UniProt Q8WXK3)
T2 construct: 200 μL of lysate containing 5 mg/ml proteome was treated with 2 μL of 100× compound stock; endogenous in cells
T2 sequence (Q8WXK3 whole entry): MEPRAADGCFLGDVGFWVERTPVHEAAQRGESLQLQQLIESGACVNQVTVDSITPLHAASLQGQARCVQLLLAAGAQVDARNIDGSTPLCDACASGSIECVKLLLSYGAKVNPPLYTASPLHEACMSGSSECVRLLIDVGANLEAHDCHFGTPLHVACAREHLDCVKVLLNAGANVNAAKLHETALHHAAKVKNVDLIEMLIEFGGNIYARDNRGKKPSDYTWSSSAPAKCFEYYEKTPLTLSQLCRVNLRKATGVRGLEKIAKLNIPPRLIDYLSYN
Text: as §1

Q9C0C7 = target: T3, Q9C0C7 (Homo sapiens, UniProt Q9C0C7)
T3 construct: Cells were resuspended in cold PBS on ice and sonicated with a probe sonicator to achieve lysis; endogenous in cells
T3 sequence (Q9C0C7 1-1298): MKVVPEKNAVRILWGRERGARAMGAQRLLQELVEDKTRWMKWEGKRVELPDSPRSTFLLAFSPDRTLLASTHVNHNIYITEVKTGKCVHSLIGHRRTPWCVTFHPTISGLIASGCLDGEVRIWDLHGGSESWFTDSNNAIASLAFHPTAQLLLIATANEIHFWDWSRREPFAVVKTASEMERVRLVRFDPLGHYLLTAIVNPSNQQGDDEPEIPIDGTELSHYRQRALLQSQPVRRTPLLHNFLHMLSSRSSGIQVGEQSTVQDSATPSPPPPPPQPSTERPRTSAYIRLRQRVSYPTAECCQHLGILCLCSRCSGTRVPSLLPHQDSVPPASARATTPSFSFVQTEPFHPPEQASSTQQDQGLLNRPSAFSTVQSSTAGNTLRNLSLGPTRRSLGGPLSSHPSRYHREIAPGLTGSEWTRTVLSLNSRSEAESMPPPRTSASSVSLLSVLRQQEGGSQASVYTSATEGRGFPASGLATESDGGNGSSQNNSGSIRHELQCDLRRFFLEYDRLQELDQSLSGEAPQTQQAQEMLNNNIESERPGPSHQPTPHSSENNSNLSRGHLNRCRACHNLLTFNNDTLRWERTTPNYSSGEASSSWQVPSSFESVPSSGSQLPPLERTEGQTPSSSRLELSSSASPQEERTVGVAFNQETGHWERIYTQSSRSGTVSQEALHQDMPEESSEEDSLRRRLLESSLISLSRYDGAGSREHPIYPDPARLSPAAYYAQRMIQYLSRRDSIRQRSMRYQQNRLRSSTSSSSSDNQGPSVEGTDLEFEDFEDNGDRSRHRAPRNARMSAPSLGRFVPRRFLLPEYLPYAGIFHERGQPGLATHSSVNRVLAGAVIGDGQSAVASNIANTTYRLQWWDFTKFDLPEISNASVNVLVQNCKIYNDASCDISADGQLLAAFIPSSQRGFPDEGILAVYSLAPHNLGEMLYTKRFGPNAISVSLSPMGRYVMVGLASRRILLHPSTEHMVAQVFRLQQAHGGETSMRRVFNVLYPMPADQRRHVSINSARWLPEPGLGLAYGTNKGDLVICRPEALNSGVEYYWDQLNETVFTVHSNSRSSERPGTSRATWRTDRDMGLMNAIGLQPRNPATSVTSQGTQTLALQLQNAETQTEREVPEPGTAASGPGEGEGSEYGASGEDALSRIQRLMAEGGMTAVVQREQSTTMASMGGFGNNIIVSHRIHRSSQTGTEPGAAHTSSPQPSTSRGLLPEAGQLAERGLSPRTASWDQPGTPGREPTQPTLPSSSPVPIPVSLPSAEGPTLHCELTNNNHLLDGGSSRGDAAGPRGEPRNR
Text: as §1

Q9BX70 = target: T4, Q9BX70 (Homo sapiens, UniProt Q9BX70)
T4 construct: 200 μL of lysate containing 5 mg/ml proteome was treated with 2 μL of 100× compound stock; endogenous in cells
T4 sequence (Q9BX70 whole entry): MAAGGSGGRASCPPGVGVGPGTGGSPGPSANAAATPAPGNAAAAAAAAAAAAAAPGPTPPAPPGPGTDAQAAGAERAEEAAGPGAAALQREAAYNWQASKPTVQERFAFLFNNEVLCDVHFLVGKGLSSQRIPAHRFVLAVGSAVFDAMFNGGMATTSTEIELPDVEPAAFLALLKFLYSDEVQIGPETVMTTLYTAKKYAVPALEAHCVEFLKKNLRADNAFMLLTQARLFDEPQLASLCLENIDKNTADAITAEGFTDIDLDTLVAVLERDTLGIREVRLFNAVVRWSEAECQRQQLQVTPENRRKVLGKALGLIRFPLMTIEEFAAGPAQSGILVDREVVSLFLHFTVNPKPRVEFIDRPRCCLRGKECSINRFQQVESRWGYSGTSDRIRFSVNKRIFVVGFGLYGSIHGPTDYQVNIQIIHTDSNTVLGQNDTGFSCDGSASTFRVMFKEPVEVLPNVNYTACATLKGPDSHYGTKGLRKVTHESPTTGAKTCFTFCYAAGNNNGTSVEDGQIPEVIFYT
Text: as §1

Q9BSF8 = target: T5, Q9BSF8 (Homo sapiens, UniProt Q9BSF8)
T5 construct: 200 μL of lysate containing 5 mg/ml proteome was treated with 2 μL of 100× compound stock; endogenous in cells
T5 sequence (Q9BSF8 whole entry): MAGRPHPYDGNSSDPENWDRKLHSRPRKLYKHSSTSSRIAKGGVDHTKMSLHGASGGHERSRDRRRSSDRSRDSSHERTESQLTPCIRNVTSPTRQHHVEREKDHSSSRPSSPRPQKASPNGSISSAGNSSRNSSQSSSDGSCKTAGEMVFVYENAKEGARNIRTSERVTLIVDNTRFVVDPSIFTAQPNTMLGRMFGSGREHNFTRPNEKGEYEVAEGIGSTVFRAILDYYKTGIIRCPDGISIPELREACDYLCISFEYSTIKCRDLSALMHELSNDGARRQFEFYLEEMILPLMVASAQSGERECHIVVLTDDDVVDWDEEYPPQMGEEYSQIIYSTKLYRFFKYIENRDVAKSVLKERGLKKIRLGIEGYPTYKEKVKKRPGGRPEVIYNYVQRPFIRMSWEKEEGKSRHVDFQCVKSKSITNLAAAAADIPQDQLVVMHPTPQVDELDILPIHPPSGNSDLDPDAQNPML
Text: as §1

Q7Z569 = target: T6, Q7Z569 (Homo sapiens, UniProt Q7Z569)
T6 construct: 200 μL of lysate containing 5 mg/ml proteome was treated with 2 μL of 100× compound stock; endogenous in cells
T6 sequence (Q7Z569 whole entry): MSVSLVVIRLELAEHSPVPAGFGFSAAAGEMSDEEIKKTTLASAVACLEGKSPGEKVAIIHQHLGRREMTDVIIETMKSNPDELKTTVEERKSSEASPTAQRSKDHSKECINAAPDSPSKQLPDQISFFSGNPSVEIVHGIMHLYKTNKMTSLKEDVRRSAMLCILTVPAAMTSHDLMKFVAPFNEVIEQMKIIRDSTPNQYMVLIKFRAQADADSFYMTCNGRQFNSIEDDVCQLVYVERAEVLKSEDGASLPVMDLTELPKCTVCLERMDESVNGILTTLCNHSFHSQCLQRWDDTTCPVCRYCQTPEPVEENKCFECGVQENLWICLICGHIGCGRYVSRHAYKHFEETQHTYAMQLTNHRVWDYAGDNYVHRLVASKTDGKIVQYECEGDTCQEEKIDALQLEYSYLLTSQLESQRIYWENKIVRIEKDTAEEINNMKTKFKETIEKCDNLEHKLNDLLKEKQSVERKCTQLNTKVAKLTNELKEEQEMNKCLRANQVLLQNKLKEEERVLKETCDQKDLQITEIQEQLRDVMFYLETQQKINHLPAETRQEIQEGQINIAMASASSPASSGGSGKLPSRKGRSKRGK
Text: as §1

Q9UJX4 = target: T7, Q9UJX4 (Homo sapiens, UniProt Q9UJX4)
T7 construct: Cells were resuspended in cold PBS on ice and sonicated with a probe sonicator to achieve lysis; endogenous in cells
T7 sequence (Q9UJX4 whole entry): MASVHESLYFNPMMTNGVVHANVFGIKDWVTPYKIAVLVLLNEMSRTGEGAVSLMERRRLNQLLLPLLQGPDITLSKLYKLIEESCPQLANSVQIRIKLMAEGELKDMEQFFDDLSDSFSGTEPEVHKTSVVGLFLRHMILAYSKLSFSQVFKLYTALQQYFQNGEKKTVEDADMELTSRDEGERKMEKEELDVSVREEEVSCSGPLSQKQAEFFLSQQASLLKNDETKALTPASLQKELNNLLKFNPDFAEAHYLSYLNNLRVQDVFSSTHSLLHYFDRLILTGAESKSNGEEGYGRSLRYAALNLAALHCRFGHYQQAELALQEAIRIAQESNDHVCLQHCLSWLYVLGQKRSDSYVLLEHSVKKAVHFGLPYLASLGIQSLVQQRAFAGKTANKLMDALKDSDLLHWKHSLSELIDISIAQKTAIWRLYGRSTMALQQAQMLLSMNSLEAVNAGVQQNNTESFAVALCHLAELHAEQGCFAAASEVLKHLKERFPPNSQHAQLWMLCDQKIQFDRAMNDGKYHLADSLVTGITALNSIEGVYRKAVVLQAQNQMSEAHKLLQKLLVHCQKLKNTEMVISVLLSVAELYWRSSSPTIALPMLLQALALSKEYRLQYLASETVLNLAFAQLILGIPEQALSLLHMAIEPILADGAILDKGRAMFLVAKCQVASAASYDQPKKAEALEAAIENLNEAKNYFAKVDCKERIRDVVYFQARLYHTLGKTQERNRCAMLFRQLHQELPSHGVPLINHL
Text: as §1

[1] = 100 uM, read-out: KB05_100 uM_percent_inhibition
[2] = 500 uM, read-out: KB05_500 uM_percent_inhibition
[3] = read-out: KB05_100 uM_percent_inhibition

Compound: COc1ccc2c(c1)CCCN2C(=O)CCl [KB02]
- KB02_500 uM_percent_inhibition (Q9P203; 500 uM): 17%
- inhibition at 500 µM (Q9P203; read-out: KB02_500 uM_percent_inhibition): 12%
- inhibition at 500 µM (Q8WXK3; 500 uM, read-out: KB02_500 uM_percent_inhibition): 44%
- KB02_100 uM_percent_inhibition (Q9C0C7; 100 uM): 49%
- inhibition at 100 µM (Q9C0C7; read-out: KB02_100 uM_percent_inhibition): 48%
- inhibition at 100 µM (Q9BX70; 100 uM, read-out: KB02_100 uM_percent_inhibition): 4%

- inhibition at 100 µM (Q9BSF8; [1]): 27%
- KB05_500 uM_percent_inhibition (Q9BSF8; 500 uM): 53%
- inhibition at 500 µM (Q9BSF8; [2]): 37%
- inhibition at 100 µM (Q7Z569; [3]): 33%
- inhibition at 100 µM (Q9UJX4; [1]): 9%
- inhibition at 500 µM (Q9UJX4; [2]): 74%
- KB05_100 uM_percent_inhibition (Q9C0C7; 100 uM): 25%
- inhibition at 100 µM (Q9C0C7; [3]): 23%
Compound: C=CC(=O)N(c1ccccc1)c1ccc(Br)cc1 [KB05]

Compound: O=C(CCl)Nc1cc(C(F)(F)F)cc(C(F)(F)F)c1 [KBO3]
- KB03_100 uM_percent_inhibition (Q9BSF8; 100 uM): 29%
- KB03_100 uM_percent_inhibition (Q7Z569; 100 uM): 10%
- KB03_500 uM_percent_inhibition (Q9P203; 500 uM): 13%
- KB03_100 uM_percent_inhibition (Q9UJX4; 100 uM): 31%
- KB03_100 uM_percent_inhibition (Q8WXK3; 100 uM): 7%
- KB03_500 uM_percent_inhibition (Q9BX70; 500 uM): 40%
